Experimental data: PubChem BioAssay AID1745844 (Carcinogenic Potency Database (CPDB), 2022)
Active and inactive are the calls of the source. No rule for the calls is given here.

System: rodent lifetime carcinogenesis bioassay, tumor incidence TD50
Test: chronic cancer bioassays in animals – CPDB, compiled studies (AID 1745844)
Settings: in feed, dosed 78 weeks

Nc1ccc(Cl)c(N)c1
TD50 (mouse, strain B6C3F1, females, site: any site (literature study), lesion: several types, types named in the paper, study length 95 weeks): 15400 mg/kg/day
TD50 (mouse, strain B6C3F1, females, site: liver, lesion: hepatocellular adenoma + hepatocellular carcinoma + neoplastic nodule, study length 95 weeks): 1230 mg/kg/day
TD50 (mouse, strain B6C3F1, females, site: liver, lesion: hepatocellular adenoma + hepatocellular carcinoma, study length 95 weeks): 1230 mg/kg/day
TD50 (mouse, strain B6C3F1, females, site: liver, lesion: hepatocellular carcinoma, study length 95 weeks): 1780 mg/kg/day
TD50 (mouse, strain B6C3F1, males, site: any site (literature study), lesion: several types, types named in the paper, study length 94 weeks): 7320 mg/kg/day (inactive)
TD50 (mouse, strain B6C3F1, males, site: liver, lesion: hepatocellular adenoma + hepatocellular carcinoma + neoplastic nodule, study length 94 weeks): 7050 mg/kg/day
TD50 (rat, strain Fischer 344, females, site: any site (literature study), lesion: several types, types named in the paper, study length 104 weeks): 479 mg/kg/day
TD50 (rat, strain Fischer 344, females, site: liver, lesion: hepatocellular adenoma + hepatocellular carcinoma + neoplastic nodule, study length 104 weeks): 2680 mg/kg/day
TD50 (rat, strain Fischer 344, females, site: uterus, lesion: endometrial stromal polyp, study length 104 weeks): 175 mg/kg/day (inactive)
TD50 (rat, strain Fischer 344, males, site: adrenal gland, lesion: pheochromocytoma, study length 104 weeks): 315 mg/kg/day
TD50 (rat, strain Fischer 344, males, site: any site (literature study), lesion: several types, types named in the paper, study length 104 weeks): 422 mg/kg/day
TD50 (rat, strain Fischer 344, males, site: liver, lesion: hepatocellular adenoma + hepatocellular carcinoma + neoplastic nodule, study length 104 weeks): 1570 mg/kg/day
